The text below walks through data of patent US6214792A, “Method for treating acute and severe diarrhea” (priority 1999, dated 2001).

The subject of data set [1] is patient addicted to narcotics. In words: Clinical treatment of acute and severe diarrhea accompanying rapid narcotic detoxification (acute withdrawal). Particulars: parenteral, about 0.025 mg to about 0.1 mg octreotide, preferably about 0.0007 mg/kg, before nalmefene. Format: in vivo, human. The protocol:
A medication to induce unconsciousness is administered, preferably by the intravenous route, in doses appropriate for the patient's weight and medical condition. This medication should be a non-opioid derivative not related to the narcotic classification of drugs, such as midazolam, propofol, sodium pentothal, a combination thereof, or other drugs commonly used to induce unconsciousness. As a specific example, a dose of 0.3 milligrams of midazolam per kilogram of body weight administered intravenously is usually sufficient to produce unconsciousness.
After octreotide and glycopyrrolate have been administered and the patient's vital signs are stable, nalmefene is administered parenterally, preferably by intravenous route. For a 70 kilogram adult patient, the typical initial dose of parenteral nalmefene is from about 0.5-1.5 mg to no more than about 1.5-2.0 of nalmefene. The dosage is adjusted proportionally based on the weight of the patient, and the rate of administration of nalmefene may be titrated upward or downward depending on the response of the patient's sympathetic nervous system as evidence by monitoring of life functions and other clinical criteria. Some time thereafter, usually no more than four hours after said administration of nalmefene is complete, the patient can be expected to be detoxified and can be safely rendered back to a state of consciousness. […]

Data set [2] deals with patient addicted to narcotics. Kind of data set: Clinical tolerability (bradycardia, abdominal distention) of octreotide during rapid narcotic detoxification. The settings on record: parenteral.
Source text: A patient addicted to narcotics undergoes intravenous cannulation by either the peripheral or central venous route, and the appropriate intravenous solution is infused intravenously at the required rate for the size and conditions of the patient. Monitors of life function are attached to the patient which may include a pulse oximeter, electrocardiogram patches, a blood pressure cuff attached to a sphygmomanometer and a means to measure the carbon dioxide of the patient's exhaled breath by way of capnography.
This is typically followed by intravenous administration of a medication such as a depolarizing or non-depolarizing neuromuscular blocking agent to facilitate intubation of the patient's trachea. The endotracheal tube is then secured in the correct anatomic position using usual anesthetic care measures. After stabilization of the patient's life functions as usually done in routine anesthetic management, the patient is administered parenterally about 0.025 mg to about 0.1 mg octreotide, preferably about 0.0007 mg/kg of body weight.
As noted previously, glycopyrrolate is preferred and is administered parenterally with the octreotide in an amount ranging from about 0.2 mg to above 0.4 mg glycopyrrolate. However, from about 0.2 mg to about 0.4 mg atropine administered parenterally is also effective.
Data set [3] concerns patient addicted to narcotics. Particulars: background statement, prior practice, dose not given; cited from earlier work.
In data set [4] the test system is patient addicted to narcotics. The settings on record: background statement, prior practice, dose not given; cited from earlier work. The source holds these as a separate data set.

Take octreotide: the “prevention of acute and severe diarrhea accompanying acute detoxification” value in data set [1] is “sufficient to prevent the acute and severe diarrhea”. Further, the “bradycardia in the post-detoxification period” value in data set [2] (about 0.025 mg to about 0.05 mg octreotide every 12 hours) is listed as “without causing significant bradycardia”. Also, the bradycardia result in data set [2] (about 0.025 mg to about 0.1 mg octreotide, preferably about 0.0007 mg/kg) was “does not precipitate significant bradycardia”. In data set [2] (about 0.025 mg to about 0.1 mg octreotide, distention frequently observed at higher dosage levels), the abdominal distention entry was “does not result in the abdominal distention”. Besides, the incidence of bradycardia result in data set [3] is given as “unacceptable incidence of bradycardia”. For the same substance, the “treating clinically significant diarrhea during rapid detoxification” value in data set [4] was “proven effective”.
